Reference: ChEMBL document CHEMBL1649565, “Besifloxacin, a novel fluoroquinolone, has broad-spectrum in vitro activity against aerobic and anaerobic bacteria” (Antimicrob Agents Chemother, 2009)
In brackets after ≈: the same amount, converted by molar mass. Activity calls are given as the source filed them. The rule behind the calls is not given here.

What was measured:
Acinetobacter baumannii [1] = test: Antibacterial activity against Acinetobacter baumannii assessed as percent susceptible isolates by CLSI M7-A7 method; format: functional
Morganella morganii = test: Antibacterial activity against Morganella morganii by CLSI M7-A7 method; format: functional
[2] = test system: Staphylococcus saprophyticus; test: Antibacterial activity against Staphylococcus saprophyticus by CLSI M100-S18 method; format: functional
Pseudomonas aeruginosa [3] = test: Antibacterial activity against ciprofloxacin-susceptible Pseudomonas aeruginosa assessed as percent susceptible isolates by CLSI M7-A7 method; format: functional
Citrobacter freundii = test: Antibacterial activity against Citrobacter freundii by CLSI M7-A7 method; format: functional
[4] = test system: Acinetobacter calcoaceticus; test: Antibacterial activity against Acinetobacter calcoaceticus by CLSI M7-A7 method; format: functional
[5] = Antibacterial activity against Lancefield Streptococcus sp. 'group G' by CLSI M100-S18 method; format: functional
Acinetobacter lwoffii = test: Antibacterial activity against Acinetobacter lwoffii assessed as percent susceptible isolates by CLSI M7-A7 method; format: functional
Klebsiella pneumoniae = test: Antibacterial activity against Klebsiella pneumoniae assessed as percent susceptible isolates by CLSI M7-A7 method; format: functional
Neisseria meningitidis = test: Antibacterial activity against Neisseria meningitidis by CLSI M7-A7 method; format: functional
[6] = test system: Streptococcus constellatus; test: Antibacterial activity against Streptococcus constellatus by CLSI M100-S18 method; format: functional
Streptococcus pneumoniae [7] = test: Antibacterial activity against non-levofloxacin susceptible Streptococcus pneumoniae assessed as percent susceptible isolates by CLSI M100-S18 method; format: functional
Streptococcus anginosus [8] = test: Antibacterial activity against Streptococcus anginosus by CLSI M100-S18 method; format: functional
Enterococcus faecium = test: Antibacterial activity against vancomycin- resistant Enterococcus faecium assessed as percent susceptible isolates by CLSI M100-S18 method; format: functional
Proteus vulgaris = test: Antibacterial activity against Proteus vulgaris assessed as percent susceptible isolates by CLSI M7-A7 method; format: functional
[9] = test system: Staphylococcus epidermidis
Enterobacter cloacae = test: Antibacterial activity against Enterobacter cloacae assessed as percent susceptible isolates by CLSI M7-A7 method; format: functional
[10] = test system: Acinetobacter calcoaceticus; test: Antibacterial activity against Acinetobacter calcoaceticus assessed as percent susceptible isolates by CLSI M7-A7 method; format: functional
[11] = test system: Stenotrophomonas maltophilia; test: Antibacterial activity against levofloxacin-susceptible Stenotrophomonas maltophilia assessed as assessed as percent susceptible isolates by CLSI M7-A7 method; format: functional
[12] = test system: Staphylococcus epidermidis; remark: listed apart in the source
Klebsiella aerogenes [13] = test: Antibacterial activity against Enterobacter aerogenes assessed as percent susceptible isolates by CLSI M7-A7 method; format: functional
Staphylococcus hominis = test: Antibacterial activity against Staphylococcus hominis by CLSI M100-S18 method; format: functional
Acinetobacter baumannii [14] = test: Antibacterial activity against Acinetobacter baumannii by CLSI M7-A7 method; format: functional
Klebsiella aerogenes [15] = test: Antibacterial activity against Enterobacter aerogenes by CLSI M7-A7 method; format: functional
Pseudomonas aeruginosa [16] = test: Antibacterial activity against non-ciprofloxacin-susceptible Pseudomonas aeruginosa by CLSI M7-A7 method; format: functional
[17] = test system: Stenotrophomonas maltophilia; test: Antibacterial activity against non-levofloxacin susceptible Stenotrophomonas maltophilia assessed as percent susceptible isolates by CLSI M7-A7 method; format: functional
Streptococcus pneumoniae [18] = test: Antibacterial activity against levofloxacin susceptible Streptococcus pneumoniae assessed as percent susceptible isolates by CLSI M100-S18 method; format: functional
[19] = test system: Staphylococcus haemolyticus; test: Antibacterial activity against Staphylococcus haemolyticus assessed as percent susceptible isolates by CLSI M100-S18 method; format: functional
Streptococcus mitis [20] = test: Antibacterial activity against Streptococcus mitis by CLSI M100-S18 method; format: functional
[21] = test system: Staphylococcus epidermidis; test: Antibacterial activity against non-ciprofloxacin-susceptible and methicillin-susceptible Staphylococcus epidermidis by CLSI M100-S18 method; format: functional
Pseudomonas aeruginosa [22] = test: Antibacterial activity against non-ciprofloxacin-susceptible Pseudomonas aeruginosa assessed as percent susceptible isolates by CLSI M7-A7 method; format: functional
Listeria monocytogenes = test: Antibacterial activity against Listeria monocytogenes by CLSI M100-S18 method; format: functional
Haemophilus influenzae = test: Antibacterial activity against ciprofloxacin-susceptible Haemophilus influenzae assessed as percent susceptible isolates by CLSI M7-A7 method; format: functional
Moraxella catarrhalis = test: Antibacterial activity against Moraxella catarrhalis assessed as percent susceptible isolates by CLSI M7-A7 method; format: functional
[23] = test system: Streptococcus constellatus; test: Antibacterial activity against Streptococcus constellatus assessed as percent susceptible isolates by CLSI M100-S18 method; format: functional
Streptococcus sanguinis = test: Antibacterial activity against Streptococcus sanguinis assessed as percent susceptible isolates by CLSI M100-S18 method; format: functional
[24] = Antibacterial activity against Lancefield Streptococcus sp. 'group G' assessed as percent susceptible isolates by CLSI M100-S18 method; format: functional
Streptococcus salivarius = test: Antibacterial activity against Streptococcus salivarius assessed as percent susceptible isolates by CLSI M100-S18 method; format: functional
Streptococcus anginosus [25] = test: Antibacterial activity against Streptococcus anginosus assessed as percent susceptible isolates by CLSI M100-S18 method; format: functional
Streptococcus equinus = test: Antibacterial activity against Streptococcus bovis assessed as percent susceptible isolates by CLSI M100-S18 method; format: functional
Streptococcus oralis = test: Antibacterial activity against Streptococcus oralis assessed as percent susceptible isolates by CLSI M100-S18 method; format: functional
[26] = test system: Streptococcus intermedius; test: Antibacterial activity against Streptococcus intermedius assessed as percent susceptible isolates by CLSI M100-S18 method; format: functional
Streptococcus sp. = test: Antibacterial activity against Lancefield Streptococcus sp. group F assessed as percent susceptible isolates by CLSI M100-S18 method; format: functional
Streptococcus agalactiae = test: Antibacterial activity against Streptococcus agalactiae assessed as percent susceptible isolates by CLSI M100-S18 method; format: functional
Streptococcus mitis [27] = test: Antibacterial activity against Streptococcus mitis assessed as percent susceptible isolates by CLSI M100-S18 method; format: functional

C[C@H]1COc2c(N3CCN(C)CC3)c(F)cc3c(=O)c(C(=O)O)cn1c23.C[C@H]1COc2c(N3CCN(C)CC3)c(F)cc3c(=O)c(C(=O)O)cn1c23.O [LEVOFLOXACIN]
Activity (Acinetobacter baumannii [1]): 37.7%
MIC50 (Morganella morganii): 0.06 µg/mL
MIC90 (Morganella morganii): 8 µg/mL
MIC50 [2]: 0.25 µg/mL
MIC90 [2]: 0.5 µg/mL
Activity (Pseudomonas aeruginosa [3]): 96.2%
MIC50 (Citrobacter freundii): 0.06 µg/mL
MIC90 (Citrobacter freundii): 2 µg/mL
MIC50 [4]: 0.5 µg/mL
MIC90 [4]: 8 µg/mL
MIC50 [5]: 0.5 µg/mL
MIC90 [5]: 0.5 µg/mL
Activity (Acinetobacter lwoffii): 86%
Activity (Klebsiella pneumoniae): 91%
MIC50 (Neisseria meningitidis): 0.008 µg/mL
MIC90 (Neisseria meningitidis): 0.015 µg/mL
MIC50 [6]: 1 µg/mL
MIC90 [6]: 4 µg/mL
Activity (Streptococcus pneumoniae [7]): 0%
MIC50 (Streptococcus anginosus [8]): 1 µg/mL
MIC90 (Streptococcus anginosus [8]): 1 µg/mL
Activity (Enterococcus faecium): 30.9%
Activity (Proteus vulgaris): 100%
MIC90 [9]: inactive
Activity (Enterobacter cloacae): 92%
Activity [10]: 66.7%
Activity [11]: 0%
MIC90 [12]: inactive
Activity (Klebsiella aerogenes [13]): 80%
MIC50 (Staphylococcus hominis): 8 µg/mL
MIC90 (Staphylococcus hominis): > 8 µg/mL
MIC50 (Acinetobacter baumannii [14]): 8 µg/mL
MIC90 (Acinetobacter baumannii [14]): 64 µg/mL
MIC50 (Klebsiella aerogenes [15]): 0.06 µg/mL
MIC90 (Klebsiella aerogenes [15]): 16 µg/mL
MIC50 (Pseudomonas aeruginosa [16]): 16 µg/mL
MIC90 (Pseudomonas aeruginosa [16]): 64 µg/mL
Activity [17]: 100%
Activity (Streptococcus pneumoniae [18]): 100%
Activity [19]: 37.6%
MIC50 (Streptococcus mitis [20]): 1 µg/mL
MIC90 (Streptococcus mitis [20]): 4 µg/mL
MIC50 [21]: 8 µg/mL
Activity (Pseudomonas aeruginosa [22]): 1%
MIC50 (Listeria monocytogenes): 0.5 µg/mL
MIC90 (Listeria monocytogenes): 1 µg/mL
Activity (Haemophilus influenzae): 100%
Activity (Moraxella catarrhalis): 100%

NC[C@H]1O[C@H](O[C@H]2[C@H](O)[C@@H](O[C@H]3O[C@H](CO)[C@@H](O)[C@H](N)[C@H]3O)[C@H](N)C[C@@H]2N)[C@H](N)C[C@@H]1O [TOBRAMYCIN]
Activity (Acinetobacter baumannii [1]): 60.4%
MIC50 (Morganella morganii): 1 µg/mL (≈ 2.14 µM)
MIC90 (Morganella morganii): 4 µg/mL (≈ 8.56 µM)
Activity [23]: 95.5%
MIC50 [2]: 0.015 µg/mL (≈ 0.0321 µM)
MIC90 [2]: 0.06 µg/mL (≈ 0.128 µM)
Activity (Pseudomonas aeruginosa [3]): 95.2%
Activity (Streptococcus sanguinis): 95.5%
Activity [24]: 74%
MIC50 (Citrobacter freundii): 0.25 µg/mL (≈ 0.535 µM)
MIC90 (Citrobacter freundii): 0.5 µg/mL (≈ 1.07 µM)
Activity (Streptococcus salivarius): 95.5%
MIC50 [4]: 0.25 µg/mL (≈ 0.535 µM)
MIC90 [4]: 1 µg/mL (≈ 2.14 µM)
Activity (Streptococcus anginosus [25]): 95.5%
Activity (Streptococcus equinus): 95.5%
MIC50 [5]: 0.06 µg/mL (≈ 0.128 µM)
MIC90 [5]: > 8 µg/mL
Activity (Acinetobacter lwoffii): 94%
Activity (Klebsiella pneumoniae): 100%
MIC50 [6]: 0.06 µg/mL (≈ 0.128 µM)
MIC90 [6]: > 8 µg/mL
Activity (Streptococcus oralis): 95.5%
Activity [26]: 95.5%
Activity (Streptococcus pneumoniae [7]): inactive
MIC50 (Streptococcus anginosus [8]): 16 µg/mL (≈ 34.2 µM)
MIC90 (Streptococcus anginosus [8]): 32 µg/mL (≈ 68.4 µM)
Activity (Proteus vulgaris): 100%
MIC90 [9]: inactive
Activity (Enterobacter cloacae): 100%
Activity [10]: 92.6%
Activity (Streptococcus sp.): 74%
Activity [11]: 1.9%
MIC90 [12]: inactive
Activity (Streptococcus agalactiae): 73%
Activity (Klebsiella aerogenes [13]): 100%
MIC50 (Staphylococcus hominis): 16 µg/mL (≈ 34.2 µM)
MIC90 (Staphylococcus hominis): 32 µg/mL (≈ 68.4 µM)
MIC50 (Acinetobacter baumannii [14]): 4 µg/mL (≈ 8.56 µM)
MIC90 (Acinetobacter baumannii [14]): > 64 µg/mL
MIC50 (Klebsiella aerogenes [15]): 0.5 µg/mL (≈ 1.07 µM)
MIC90 (Klebsiella aerogenes [15]): 8 µg/mL (≈ 17.1 µM)
MIC50 (Pseudomonas aeruginosa [16]): 8 µg/mL (≈ 17.1 µM)
MIC90 (Pseudomonas aeruginosa [16]): > 8 µg/mL
Activity [17]: 0%
Activity (Streptococcus mitis [27]): 95.5%
Activity (Streptococcus pneumoniae [18]): inactive
Activity [19]: 26.7%
MIC50 (Streptococcus mitis [20]): 0.06 µg/mL (≈ 0.128 µM)
MIC90 (Streptococcus mitis [20]): > 8 µg/mL
MIC50 [21]: 2 µg/mL (≈ 4.28 µM)
Activity (Pseudomonas aeruginosa [22]): 44.8%
MIC50 (Listeria monocytogenes): 0.12 µg/mL (≈ 0.257 µM)
MIC90 (Listeria monocytogenes): 0.12 µg/mL (≈ 0.257 µM)
Activity (Haemophilus influenzae): inactive
Activity (Moraxella catarrhalis): 100%
